Source: US5037830A, “Novel thiouracyl derivatives, pharmaceutical compositions containing them and process for preparing same” (Richter Gedeon Vegyeszeti Gyar RT, priority 1989, dated 1991)
Like-named read-outs stand apart in the source and are kept apart here.

What was measured:
[1] = test system: spontaneous gastric acid secretion; assay: Gastric acid secretion-inhibiting effect according to Shay's method; format: in vivo, female OFA rats; conditions: for Gastric acid, change / Gastric juice, change: vs control; for Gastric acid, treated: titration with 0.1N NaOH; for inhibitor effect on gastric acid secretion, in words: compared with reference drugs; for ED50: po, gastric acid, Shay rat
Description: After being starved for 24 hours, female OFA rats weighing 130 to 160 g were orally treated with the compounds to be tested. (15 animals were used for each dose.) One hour later laparotomy and pylorus ligature were carried out under ether anaesthesia according to Shay [Gastroenterology 5, 43 (1945)]. After 5 hours the animals were killed by an overdose of ether, their stomaches were excised and the volume and acid content of the gastric juice were determined. The acid was measured by titration with 0.1N NaOH, by using Topfer's indicator.

[2] = test system: necrosis induced by ethanol containing hydrochloric acid; assay: Cytoprotective effect (modified Robert's test); format: in vivo; conditions: for Bleedings, change: vs control; for ED50: po, cytoprotection
Description: The modified Robert's test [Gastroenterology 17, 761 (1979)] was used. The necrotizing agent (100 ml of abs. ethanol containing 2 ml of concentrated hydrochloric acid) was orally administered in a volume of 0.5 ml/100 g by 30 minutes after giving the compound to be tested. (12 animals were used for each dose.) After 1 hour the animals were killed by ether and the bleedings on the glandular part of their stomach were evaluated.

[3] = test system: reserpine-induced gastric ulcer; assay: Inhibition of the reserpine-induced gastric ulcer; format: in vivo, female OFA rats; conditions: Rattus norvegicus, po, 18 h, p.o., reserpine 5 mg/kg s.c.
Description: After being starved for 24 hours, female OFA rats were orally treated with the compounds to be tested and then subcutaneously (s.c.) with 5 mg/kg of reserpine after 1 hour. After 18 hours the animals were killed and their stomach were examined under microscope. The evaluation was performed as described under the preceding paragraph 1.

[4] = test system: gastric ulcer after pylorus ligature; assay: Gastric ulcer-inhibiting effect in rats operated according to Shay's method; format: in vivo, female OFA rats; conditions: Rattus norvegicus, po, 18 h, p.o.
Description: Female OFA rats starved for 24 hours weighing 150 to 160 g were used. (The animals were allowed to drink water ad libitum). The animals were orally treated with the substance to be tested and after 1 hour laparotomy and pylorus ligature according to Shay [Gastroenterology 5, 43 (1945)] were performed under ether anaesthesia. After 18 hours the number and size of ulcers formed on the membranaceous part of the stomach were examined under microscope. The evaluation was made in relation to the control group and the ED50 values were determined. The sizes of the ulcers were expressed as score values from 0.5 to 32.

[5] = read-out: ED50 related to the number of ulcers
[6] = read-out: ED50 related to the occurrance of ulcers
[7] = read-out: ED50 related to the severity of ulcers

SMILES	Gastric juice, treated ([1]; 5 mg/kg p.o.) [mL]	Gastric acid, change ([1]; 5 mg/kg p.o.) [%]	Gastric juice, change ([1]; 5 mg/kg p.o.) [%]	Gastric acid, treated ([1]; 5 mg/kg p.o.) [mL]	Gastric juice, treated ([1]; 10 mg/kg p.o.) [mL]	Gastric acid, change ([1]; 10 mg/kg p.o.) [%]	Gastric juice, change ([1]; 10 mg/kg p.o.) [%]	Gastric acid, treated ([1]; 10 mg/kg p.o.) [mL]	Gastric juice, treated ([1]; 20 mg/kg p.o.) [mL]	Gastric acid, change ([1]; 20 mg/kg p.o.) [%]	Gastric juice, change ([1]; 20 mg/kg p.o.) [%]	Gastric acid, treated ([1]; 20 mg/kg p.o.) [mL]	Gastric juice, treated ([1]; 40 mg/kg p.o.) [mL]	Gastric acid, change ([1]; 40 mg/kg p.o.) [%]	Gastric juice, change ([1]; 40 mg/kg p.o.)	Gastric acid, treated ([1]; 40 mg/kg p.o.) [mL]	inhibitor effect on gastric acid secretion, in words [1]	ED50 [1] [mg/kg]	Bleedings, treated ([2]; 5 mg/kg p.o.) [mm]	Bleedings, change ([2]; 5 mg/kg p.o.) [%]	other results
CN(C)c1ccccc1CSc1nc(-c2ccccc2)cc(=O)[nH]1 [Example 5, 2-(2-dimethylamino-benzyl)thio-6-phenyl-4(3H)-pyrimidinone]	5.77	-24.9	-17.3	2.11	5.51	-62.0	-19.6	2.06	4.33	-86.3	-37.1	0.37	6.80	-94.5	+6.8%	0.18	more active then either of both reference drugs	8.1	73.5	-26.3	Bleedings, treated ([2]; 10 mg/kg p.o.): 47.6 mm; Bleedings, change ([2]; 10 mg/kg p.o.): -52.3%; Bleedings, treated ([2]; 20 mg/kg p.o.): 24.3 mm; Bleedings, change ([2]; 20 mg/kg p.o.): -81.7%; ED50 [2]: 9.9 mg/kg
CCN(C)c1ccccc1CSc1nc(C)cc(=O)[nH]1 [Example 10]					5.23	-32.5	-13.7	1.89	5.23	-60.3	-18.0	1.23	5.39	-87.3	-24.8%	0.45	equiactive to the NC-1300 reference drug	15.5			
COc1ccc2[nH]c([S+]([O-])Cc3ncc(C)c(OC)c3C)nc2c1 (centres unmarked) [Omeprazole, 2-[[(3,5-dimethyl-4-methoxypyridin-2-il)-methyl]-sulfinyl]-5-methoxy-1H-benzimidazole, reference compound]	5.40	-35.4	-21.5	1.75	5.47	-37.3	-20.5	1.70	4.30	-74.7	-38.4	0.71						10.5	61.8	-27.1	ED50 [3, 5]: 17 mg/kg; ED50 [3, 6]: 24 mg/kg; ED50 [3, 7]: 20 mg/kg; ED50 [4, 5]: 9.2 mg/kg; ED50 [4, 6]: 17 mg/kg; ED50 [4, 7]: 11 mg/kg; Bleedings, treated ([2]; 10 mg/kg p.o.): 46.0 mm; Bleedings, change ([2]; 10 mg/kg p.o.): -45.8%; Bleedings, treated ([2]; 20 mg/kg p.o.): 14.2 mm; Bleedings, change ([2]; 20 mg/kg p.o.): -83.8%; ED50 [2]: 10 mg/kg
